Legend:
[1] = test system: A375Ppuro xenografts; format: in vivo, mouse; conditions: after 21 days
[2] = test system: Panc1 cells
[3] = test system: A375Pβ6 cells; format: cell-based, human; conditions: 30 min at 4°C
[4] = test system: Capan-1 cells
[5] = test system: A375Pβ6 cells
[6] = test system: A375Ppuro cells
[7] = test system: Capan-1 tumor xenografts; format: in vivo, mouse; conditions: n=3
[8] = test system: A375Pβ6 xenografts; conditions: mouse, in vivo, ip
[9] = test system: Capan-1 cells; format: cell-based, human
[10] = test system: αvβ6-positive versus αvβ6-negative cell lines; format: cell-based
[11] = test system: Panc0403/PS1 xenografts; format: in vivo, mouse; conditions: n=4
[12] = test system: Colo357 cells
[13] = test system: Capan-1 PDAC xenografts; conditions: mouse, in vivo, ip
[14] = test system: PANC354, PANC253 and PANC215 PDX PDAC cells; format: cell-based, human
[15] = in vivo, ip
[16] = test system: Panc0403 cells
[17] = in vivo; conditions: female, CD1 Nu/Nu, mouse, ip, 20 ug/kg
[18] = test system: Panc0403/PS1 tumor xenografts; format: in vivo, mouse; conditions: n=4
[19] = test system: A375Ppuro cells; format: cell-based, human; conditions: 30 min at 4°C
[20] = test system: Panc1 cell line; format: cell-based; conditions: after 30 min
[21] = mouse, in vivo, ip

COc1cc2c(cc1OCCCCCOc1cc3c(cc1OC)C(=O)N1C=C(C)C[C@H]1[C@H](O)N3C(=O)OCc1ccc(NC(=O)[C@H](C)NC(=O)[C@@H](NC(=O)CCOCCOCCOCCOCCOCCOCCOCCOCCNC(=O)CCN3C(=O)CC(SC[C@H](NC(=O)[C@@H](NC(=O)[C@H](CCCNC(=N)N)NC(=O)[C@H](C)NC(=O)[C@@H](NC(=O)[C@H](CCCCN)NC(=O)[C@H](CCC(N)=O)NC(=O)[C@H](C)NC(=O)[C@H](CC(C)C)NC(=O)[C@@H](NC(=O)[C@H](CCC(N)=O)NC(=O)[C@H](CC(C)C)NC(=O)[C@H](CC(=O)O)NC(=O)CNC(=O)[C@H](CCCNC(=N)N)NC(=O)[C@H](CC(C)C)NC(=O)[C@H](CC(N)=O)NC(=O)[C@@H]4CCCN4C(=O)[C@@H](NC(=O)[C@H](C)NC(=O)[C@H](CC(N)=O)NC(=O)CCCC[C@@H]4SC[C@@H]5NC(=O)N[C@@H]54)C(C)C)C(C)C)C(C)C)[C@@H](C)O)C(=O)O)C3=O)C(C)C)cc1)N=C[C@@H]1CC(C)=CN1C2=O (stereo partly drawn) [SG3299]
reduction in tumor size compared with vehicle (PBS) [1]: 34.8±4.6%
PDC αvβ6 Specificity Ratio [2]: 0.33
IC50 ([2]; 72 h): 176 ± 116 nM
binding to A375Pβ6 cells (MFI) [3]: dose-dependent binding
PDC αvβ6 Specificity Ratio [4]: 2.80
IC50 ([4]; 72 h): 4.19 ± 3.76 nM
PDC αvβ6 Specificity Ratio [5]: 15.02
more potent in A375Pβ6 cells than SG3511 [5]: over 15 fold
more selective for A375Pβ6 cells than A375Ppuro cells [5]: 5.7 fold
IC50 ([5]; 72 h): 5.37 ± 5.23 nM
PDC αvβ6 Specificity Ratio [6]: 3.30
IC50 ([6]; 72 h): 30.6 ± 18.8 nM
increase in DNA damage (γH2AX) compared with PBS [7]: 5.9 fold
increase in apoptosis (cleaved-caspase 3) from PBS [7]: 5.8 fold
increased vimentin compared with PBS [7]: 4.6 fold
increased α-sma expression from PBS [7]: 1.9 fold
reduction in CK-positive epithelial cells compared with PBS [7]: 79.2±11.2%
reduction in E-cadherin-positive epithelial cells compared with PBS [7]: 85±8%
reduction in proliferation (Ki67 staining) compared with SG3511 [7]: 66.2±15.7%
reduction in proliferation (Ki67 staining) compared with control [7]: 67.5±15%
reduced growth more than SG3511 [8]: 2.3 fold
reduction of tumor growth compared with PBS treatment [8]: 79±7%
binding and internalisation in Capan-1 cells [9]: strong binding and entry into the cytoplasm
higher toxicity at equal dose than the non-targeted PDC SG3511 [10]: up to 15 fold
more toxic for αvβ6-expressing versus αvβ6-negative PDAC cell lines [10]: up to 78 fold
reduction of xenograft tumor growth compared with PBS treatment [11]: 75.8±6%
reduction of xenograft tumor growth compared with SG3511 therapy [11]: 60.4±9.8%
PDC αvβ6 Specificity Ratio [12]: 10.97
IC50 ([12]; 72 h): 2.24 ± 1.59 nM
effect on tumor growth [13]: significant growth inhibition
mice with tumors eliminated [13]: 4 out of 5
reduction of tumor growth compared to PBS [13]: 97.7±2%
reduction of tumor growth compared to SG3511 [13]: 96.1±3.4%
reduction of the number of spheres formed compared with control-treated spheres [14]: 72±27%
adverse effects (mouse weight, behaviour, gross histology of lung, intestine and stomach) [15]: no gross adverse effects
PDC αvβ6 Specificity Ratio [16]: 13.22
IC50 ([16]; 72 h): 3.44 ± 3.29 nM
level at time molar at 2 min [17]: 11 ± 4.3 nM
level at time molar at 5 min [17]: 9.5 ± 4.3 nM
level at time molar at 0.25 h [17]: 19.2 ± 4.9 nM
level at time molar at 1 h [17]: 27.9 ± 4.2 nM
increase in DNA damage (γH2AX) compared with PBS [18]: 5.5 fold
increase in DNA damage (γH2AX) compared with SG3511 [18]: 2.9 fold
reduction of epithelial cell number (CK) compared with PBS [18]: 44.2±18.1%
reduction of epithelial cell number (CK) compared with SG3511 [18]: 41.2±19.1%
reduction of epithelial cell number (E-cadherin) compared with PBS [18]: 46±11%
reduction of epithelial cell number (E-cadherin) compared with SG3511 [18]: 32.1±34.6%
reduction of proliferation (Ki67) compared with PBS [18]: 60±13.1%
reduction of proliferation (Ki67) compared with SG3511 [18]: 54.8±13.8%
reduction of β6 expression compared to PBS [18]: 73.4±11%
reduction of β6 expression compared to SG3511 [18]: 61.1±16.1%
binding to A375Ppuro cells (MFI) [19]: failed to bind
levels of internalised conjugate in αvβ6-negative Panc1 [20]: no significant difference in the levels of internalised SG3299 or SG3511
detection in urine [21]: No SG3299 was detected in the urine
